Experimental data from PMC3348135, “Identification of New Agonists and Antagonists of the Insect Odorant Receptor Co-Receptor Subunit” (PLoS ONE, 2012).

How the values were obtained:
Cqui\Orco + Cqui\Or10 = Cqui\Orco + Cqui\Or10 (Culex quinquefasciatus, UniProt D5LMR7+Q309I4); experiment: Activation of Cqui\Orco + Cqui\Or10 in Xenopus oocytes, two-electrode voltage clamp; format: cell-based; settings: 100 µM compound, mean ± SEM, n=3-8; for Emax at 100 µM: read-out: Response amplitude as percentage of response to 100 µM OLC3, Cqui\Orco + Cqui\Or10
Sequence of Cqui\Orco + Cqui\Or10 (D5LMR7 entry or part of it): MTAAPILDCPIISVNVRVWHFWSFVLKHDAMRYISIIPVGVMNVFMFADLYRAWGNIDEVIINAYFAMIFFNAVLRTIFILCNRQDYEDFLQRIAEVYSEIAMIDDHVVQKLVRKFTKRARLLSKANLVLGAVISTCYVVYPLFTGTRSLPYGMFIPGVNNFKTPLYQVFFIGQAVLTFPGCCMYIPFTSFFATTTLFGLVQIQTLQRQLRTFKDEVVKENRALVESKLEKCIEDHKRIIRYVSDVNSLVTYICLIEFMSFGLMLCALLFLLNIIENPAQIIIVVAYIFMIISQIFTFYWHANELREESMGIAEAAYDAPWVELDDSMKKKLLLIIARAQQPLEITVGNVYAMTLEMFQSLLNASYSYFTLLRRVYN
Sequence of Cqui\Orco + Cqui\Or10 (Q309I4 entry or part of it): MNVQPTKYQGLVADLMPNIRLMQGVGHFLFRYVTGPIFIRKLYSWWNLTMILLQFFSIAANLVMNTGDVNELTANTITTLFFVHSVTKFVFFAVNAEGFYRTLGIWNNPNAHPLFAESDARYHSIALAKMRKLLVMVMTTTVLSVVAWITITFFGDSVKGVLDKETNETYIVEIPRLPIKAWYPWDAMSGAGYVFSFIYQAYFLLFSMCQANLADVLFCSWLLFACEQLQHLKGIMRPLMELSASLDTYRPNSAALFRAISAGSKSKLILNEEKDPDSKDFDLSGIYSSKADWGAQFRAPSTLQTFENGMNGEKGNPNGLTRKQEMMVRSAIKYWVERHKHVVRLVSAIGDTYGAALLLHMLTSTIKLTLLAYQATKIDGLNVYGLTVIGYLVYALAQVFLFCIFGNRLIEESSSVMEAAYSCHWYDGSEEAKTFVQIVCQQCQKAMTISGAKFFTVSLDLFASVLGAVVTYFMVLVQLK
Experimental: (§1) Oocytes were surgically removed from mature Xenopus laevis frogs. Follicle cells were removed by treatment with Collagenase B (Boehringer Mannhem) for 2 hours at room temperature. Capped cRNA encoding each DmOR subunit was generated using mMessage mMachine kits (Ambion). For heteromeric ORs, 25 ng of cRNA encoding each OR subunit was injected into Stage V-VI Xenopus oocytes. For expression of Orco alone, 50 ng of cRNA was injected. Oocytes were incubated at 18°C in Barth’s saline (in mM: 88 NaCl, 1 KCl, 2.4 NaHCO3, 0.3 CaNO3, 0.41 CaCl2, 0.82 MgSO4, 15 HEPES, pH 7.6, and 150 µg/ml ceftazidime) for 2–5 days prior to electrophysiological recording.
(§2) Odorant and Orco ligand induced currents were recorded under two-electrode voltage clamp in Xenopus laevis oocytes expressing ORs, using an automated parallel electrophysiology system (OpusExpress 6000A; Molecular Devices). Oocytes were perfused with ND96 (in mM: 96 NaCl, 2 KCl, 1 CaCl2, 1 MgCl2, 5 HEPES, pH 7.5). Odorant stock solutions (0.5 or 1 M) and Orco ligand stock solutions (100 mM) were prepared in DMSO and diluted in ND96. Unless otherwise noted, applications were for 60 sec at a flow rate of 1.0 ml/min, with extensive washing in ND96 (9 or 20 min at 4.6 ml/min) between applications. Micropipettes were filled with 3 M KCl and had resistances of 0.2−2.0 MΩ. The holding potential was −70 mV. Current responses, filtered (4-pole, Bessel, low pass) at 20 Hz (−3 db) and sampled at 100 Hz, were captured and stored using OpusXpress 1.1 software (Molecular Devices).
(§3) Initial analysis of electrophysiological data was done using Clampfit 9.1 software (Molecular Devices). Curve fitting and statistical analyses were done using Prism 5 (Graphpad). Concentration-response data were fit to the equation: I = Imax/(1+(EC50/X)^n) where I represents the current response at a given concentration of odorant, X; Imax is the maximal response; EC50 is the concentration of agonist yielding a half maximal response; n is the apparent Hill coefficient. Concentration-inhibition data were fit to the equation: I = Imax/(1+(X/IC50)^n) where I represents the current response at a given concentration of inhibitor, X; Imax is the maximal response in the absence of inhibitor; IC50 is the concentration of inhibitor present that still allows a half maximal response from odorant; n is the apparent Hill coefficient. Statistical significance was assessed using a two-tailed unpaired t test, an F test, or a one-way analysis of variance followed by the Bonferroni’s post-test, as appropriate.

Dmel\Orco + Dmel\Or35a [1] = molecular target: T1, Dmel\Orco + Dmel\Or35a (Drosophila melanogaster, UniProt Q9VNB5); experiment: Agonist activation of Dmel\Orco + Dmel\Or35a in Xenopus oocytes, two-electrode voltage clamp; format: cell-based; settings: for Response amplitude as percentage of response to 100 µM OLC3, Dmel\Orco + Dmel\Or35a: 100 µM compound, mean ± SEM, n=3-8; for Emax at 100 µM: read-out: Response amplitude as percentage of response to 100 µM OLC3, Dmel\Orco + Dmel\Or35a
T1 construct: expressed in transfected cells; host or cells: Xenopus laevis oocytes (cRNA injection, pGEMHE)
T1 sequence (Q9VNB5 1-486): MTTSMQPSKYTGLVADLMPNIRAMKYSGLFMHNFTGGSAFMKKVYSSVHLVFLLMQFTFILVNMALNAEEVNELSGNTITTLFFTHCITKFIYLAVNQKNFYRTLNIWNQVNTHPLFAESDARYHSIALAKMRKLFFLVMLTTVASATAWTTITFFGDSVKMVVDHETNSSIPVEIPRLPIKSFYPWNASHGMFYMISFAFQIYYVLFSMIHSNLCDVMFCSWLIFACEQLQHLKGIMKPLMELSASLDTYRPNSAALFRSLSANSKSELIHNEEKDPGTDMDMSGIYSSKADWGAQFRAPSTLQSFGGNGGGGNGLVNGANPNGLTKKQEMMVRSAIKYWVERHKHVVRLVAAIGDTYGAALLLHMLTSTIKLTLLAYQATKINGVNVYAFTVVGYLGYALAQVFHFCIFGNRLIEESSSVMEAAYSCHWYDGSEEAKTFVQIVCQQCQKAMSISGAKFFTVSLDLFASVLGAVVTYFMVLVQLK
T1 sequence (Q9V3Q2 1-409 partner): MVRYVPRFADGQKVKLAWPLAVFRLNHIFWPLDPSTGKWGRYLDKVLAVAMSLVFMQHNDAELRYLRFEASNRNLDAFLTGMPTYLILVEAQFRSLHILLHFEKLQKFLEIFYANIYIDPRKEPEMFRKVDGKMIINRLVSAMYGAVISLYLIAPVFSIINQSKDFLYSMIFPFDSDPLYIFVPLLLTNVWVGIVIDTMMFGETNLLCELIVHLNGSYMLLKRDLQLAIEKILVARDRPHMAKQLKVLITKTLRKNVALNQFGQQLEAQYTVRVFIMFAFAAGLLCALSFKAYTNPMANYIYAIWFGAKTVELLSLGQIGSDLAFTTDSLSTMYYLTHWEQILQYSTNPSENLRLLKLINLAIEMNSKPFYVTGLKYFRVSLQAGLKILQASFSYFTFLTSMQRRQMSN
Experimental: as §1, §2, §3

Cqui\Orco = experiment: Agonist activation of homomeric Cqui\Orco in Xenopus oocytes, two-electrode voltage clamp; format: cell-based, Culex quinquefasciatus; settings: 100 µM compound; mean ± SEM, n=3-8
Dmel\Orco [2] = molecular target: T2, Dmel\Orco (Drosophila melanogaster, UniProt Q9VNB5); experiment: Agonist activation of homomeric Dmel\Orco in Xenopus oocytes, two-electrode voltage clamp; format: cell-based; settings: for Response amplitude as percentage of response to 100 µM OLC3, Dmel\Orco: 100 µM compound, mean ± SEM, n=3-8; for Emax at 100 µM: read-out: Response amplitude as percentage of response to 100 µM OLC3, Dmel\Orco
T2 construct: expressed in transfected cells; host or cells: Xenopus laevis oocytes (cRNA injection, pGEMHE)
T2 sequence (Q9VNB5 1-486): T1 sequence (Q9VNB5 1-486)
Experimental: as §1, §2, §3

Onub\Orco + Onub\Or1 = experiment: Agonist activation of Onub\Orco + Onub\Or1 in Xenopus oocytes, two-electrode voltage clamp; format: cell-based, Ostrinia nubilalis; settings: 100 µM compound; mean ± SEM, n=3-8
Dmel\Orco [3] = molecular target: T2, Dmel\Orco; experiment: Inhibition of OLC12 activation of Dmel\Orco in Xenopus oocytes; format: cell-based; settings: for IC50: activated by 30 µM OLC12 (EC39)
Experimental: as §1, §2
(§4) In inhibition assays, oocytes were exposed to 60 sec applications of OLC12 with 9 min washes between applications (Fig. 3 and 4) or 60 sec applications of odorant with 20 min washes between applications (Fig. 5). Oocytes were then exposed to a 90 sec application of antagonist candidate, immediately followed by a 60 sec co-application of antagonist candidate and OLC12 or odorant. Oocytes were then exposed to a final 60 sec application of OLC12 or odorant. The current response in the presence of antagonist candidate was compared to the preceding response(s) to OLC12 (or odorant) alone.
as §3

Dmel\Orco + Dmel\Or35a [4] = molecular target: T1, Dmel\Orco + Dmel\Or35a; experiment: Inhibition of OLC12 activation of Dmel\Orco + Dmel\Or35a in Xenopus oocytes; format: cell-based; settings: activated by 10 µM OLC12 (EC25); read-out: IC50, Dmel\Orco + Dmel\Or35a (activated by 10 µM OLC12)
Experimental: as §1, §2, §4, §3

Compound	Response amplitude as percentage of response to 100 µM OLC3, Cqui\Orco + Cqui\Or10 (Cqui\Orco + Cqui\Or10)	Response amplitude as percentage of response to 100 µM OLC3, Dmel\Orco + Dmel\Or35a (Dmel\Orco + Dmel\Or35a [1])	Response amplitude as percentage of response to 100 µM OLC3, Cqui\Orco (Cqui\Orco)	Response amplitude as percentage of response to 100 µM OLC3, Dmel\Orco (Dmel\Orco [2])	Response amplitude as percentage of response to 100 µM OLC3, Onub\Orco + Onub\Or1 (Onub\Orco + Onub\Or1)	Emax at 100 µM (Cqui\Orco + Cqui\Or10)	IC50 (Dmel\Orco [3])	Emax at 100 µM (Dmel\Orco + Dmel\Or35a [1])	Emax at 100 µM (Dmel\Orco [2])	IC50 (Dmel\Orco + Dmel\Or35a [4])	Inhibition of activation of Dmel\Orco by 30 µM OLC12 on co-application (Dmel\Orco [3]; 100 µM compound co-applied with 30 µM OLC12)
CCc1ccc(NC(C)=O)cc1 [OLC19]	0%	0%	3 ± 2%	0%	–	–	–	–	–	–	–
CCc1ccc(NC(=O)CSc2nnc(-c3cnccn3)n2CC)cc1 [OLC4]	0%	4 ± 1%	0%	0%	4 ± 2%	–	–	–	–	–	–
CCCCc1ccc(NC(=O)c2cccs2)cc1 [OLC22]	–	–	0%	–	–	0%	52 ± 18 µM	0%	0%	26 ± 4 µM	–
CCc1ccccc1NC(=O)CSc1nnc(-c2cccnc2)n1CC [OLC8]	0%	0%	5 ± 3%	0%	0%	–	–	–	–	–	fails to block
CCn1c(SCC(=O)Nc2ccc(N(C)C)cc2)nnc1-c1ccncc1 [OLC14]	–	–	0%	–	–	12 ± 2%	25 ± 4 µM	2 ± 1%	0%	81 ± 23 µM	–
CCn1c(SCC(=O)Nc2cccc(C)c2)nnc1-c1cccnc1 [OLC6]	0%	0%	4 ± 2%	0%	0%	–	–	–	–	–	–
CCn1c(SCC(=O)Nc2ccc(OC)cc2)nnc1-c1cccnc1 [OLC7]	4 ± 1%	4 ± 1%	4 ± 2%	0%	0%	–	–	–	–	–	–
CCn1c(SCC(=O)Nc2ccc(Br)cc2)nnc1-c1cccnc1 [OLC10]	27 ± 16%	25 ± 7%	0%	0%	–	–	–	–	–	–	–
CCn1c(SCC(=O)Nc2ccc(C)c(C)c2)nnc1-c1ccncc1 [OLC13]	0%	0%	0%	0%	–	–	–	–	–	–	–
